Assay results taken from article PMC6562844, “A Basic Study of Photodynamic Therapy with Glucose-Conjugated Chlorin e6 Using Mammary Carcinoma Xenografts” (Cancers, 2019).
Converted amounts (≈) assume the structure as drawn. Read-outs that look alike come from different tables or passages of the source.

How the values were obtained:
SNP cells [1] = experiment: Photodynamic cytotoxicity in SNP cells (Cell Counting Kit-8); format: cell-based, canine; details: for Cell viability compared with 0 J/cm^2 of light: p < 0.01; for IC50: Canis lupus familiaris, light or radiation study, 24 h, 24 h incubation, 650-nm laser 10 mW/cm^2, viability 24 h after PDT, read-out: IC50 against SNP cells
Method: We seeded 1 × 10^4 SNP cells into each well of 96-well plates (Corning Inc., New York, NY, USA) followed by overnight incubation. Cells were then incubated with various concentrations of G-Ce6 for 24 h at 37 °C. After washing with fresh media, the cells were irradiated with 650-nm light emitted by a semiconductor laser (Osada Electric Co., Ltd., Tokyo, Japan), using an optical fiber with a micro-lens delivery attachment (Pioneer Optics, Inc., Windsor Lock, CT, USA). PDT was performed at 10 mW/cm^2 in cells exposed to six concentrations of NPe6 and G-Ce6 (0, 0.064, 0.32, 1.6, 8.0, or 40.0 μg/mL) using four light doses (0, 1, 5, or 15 J/cm^2). The cells were then incubated for 24 h in the dark prior to examining cell viability using the Cell Counting Kit-8 (Dojindo, Kumamoto, Japan), according to the manufacturer’s instructions.

SNP cells [2] = experiment: Analysis of cell death (Hoechst 33342, Annexin V-FITC / EthD-III staining); format: cell-based, canine; details: for Annexin V-FITC / EthD-III staining 4 h after PDT: 8 μg/mL
Method: We seeded 5 × 10^4 SNP cells in 35-mm Petri dishes containing 2 mL of cultivation medium. After 24 h of incubation, the dishes were divided into the following […] groups: 1) control group (no treatment); 2) 0 J/cm^2 PDT group (treated with 8 μg/mL G-Ce6 and irradiated with light dose of 0 J/cm^2); 3) 1 J/cm^2 PDT group (treated with 8 μg/mL G-Ce6 and irradiated with light dose of 1 J/cm^2); 4) 5 J/cm^2 PDT group (treated with 8 μg/mL G-Ce6 and irradiated with light dose of 5 J/cm^2); and 5) 15 J/cm^2 PDT group (treated with 8 μg/mL G-Ce6 and irradiated with light dose of 15 J/cm^2).
The cells were incubated with 8 μg/mL G-Ce6 for 24 h. After washing with fresh media, the cells were irradiated with 650-nm laser light (10 mW/cm^2; 1, 5, and 15 J/cm^2) emitted by a semiconductor laser using an optical fiber with a microlens delivery attachment. After 4 h of PDT, the cells were stained using the Promokine Apoptotic/Necrotic/Healthy cell detection kit (PromoKine, Heidelberg, Germany), according to the manufacturer’s instructions. […] Nuclear morphology was examined using an Olympus BX51 (Olympus Co., Tokyo, Japan). […] Nuclear morphology was examined using an Olympus Fluoview FV1000 (Olympus Co., Tokyo, Japan). The cells were analyzed using fluorescence microscopy using FITC and Texas Red filter setting.

[3] = Pharmacokinetics after intravenous administration in healthy dogs; format: in vivo; details: beagle, dog, plasma, i.v.; for Vd: read-out: Vdss
Method: The animal protocol using healthy beagle dogs was approved by the Animal Research Committee of the Tottori University (project number: 17-T-3). For the pharmacokinetic crossover study, 6, 3, and 1 healthy beagle dogs were intravenously administered G-Ce6 at a dose of 2, 5, and 20 mg/kg, respectively. The ages of the healthy dogs (3 males and 3 females) ranged from 6–12 years old (mean and median, 8.6 and 7.5 years, respectively); the dogs weighed 8.7–11.2 kg (mean and median, 10.2 and 10.5 kg, respectively).
The volume of G-Ce6 required to achieve the desired doses was diluted with 0.5% saline to obtain a total injection volume of 10 mL. The full injection volume was intravenously administered over 10 min at a rate of 60 mL/h using an appropriate syringe pump.
Blood samples were collected at 0, 10, and 30 min, and 1, 3, 6, and 24 h after the end of G-Ce6 injection. The samples were mixed with heparin in plastic tubes and centrifuged at 600 × g for 5 min at 4 °C; 0.2 mL of plasma from each centrifuged sample was transferred to Eppendorf tubes. The collected plasma samples were kept in the dark to avoid light exposure until assay initiation. For fluorescence measurement, plasma was read on a Fluorescence Spectrometer SH-9000Lab (excitation, 405 nm and emission, 665 nm; Hitachi High-Technologies Co., Tokyo, Japan). The concentration of G-Ce6 was determined by comparison with appropriate standards. The concentrations of G-Ce6 in the plasma were fitted to a two-compartment model and analyzed with a pharmacokinetic analysis program (http://www.pharm.kyoto-u.ac.jp/byoyaku/Kinetics/download.html). The pharmacokinetic parameters were calculated as follows: half-life (T1/2) = ln 2/β, where β is the slope of the elimination phase; volume of distribution at steady state (Vdss) = dose (A/α^2 + B/β^2)/((A/α) + (B/β))^2, where A and B are the intercepts of the distribution and elimination phases, respectively; α is the slope of the distribution phase; and clearance (CL) = dose/AUC, where AUC is the area under the curve, which was calculated using the trapezoidal method.

SNP cells [4] = experiment: Photodynamic cytotoxicity in SNP cells (Cell Counting Kit-8); format: cell-based, canine; details: 650-nm laser, 1 J/cm^2, data not shown

CCC1=C(C)c2cc3[nH]c(cc4nc(c(CC(=O)OC)c5[nH]c(cc1n2)c(C)c5C(=O)OC)[C@@H](CCC(=O)OC)[C@@H]4C)c(C)c3C(C)OCCCS[C@@H]1O[C@H](CO)[C@@H](O)[C@H](O)[C@H]1O (stereo partly drawn) [G-Ce6, Methyl (7S,8S)-18-ethyl-5-(2-methoxy-2-oxoethyl)-7-(3-methoxy-3-oxopropyl)-2,8,12,17-tetramethyl-13-(1-(3-(((2S,3R,4S,5S,6R)-3,4,5-trihydroxy-6-(hydroxymethyl)tetrahydro-2H-pyran-2-yl)thio)propoxy)ethyl)-7H,8H-porphyrin-3-carboxylate]
Cell viability compared with 0 J/cm^2 of light (SNP cells [1]; 1.6 μg/mL, 15 J/cm^2): significantly lower | Cell viability compared with 0 J/cm^2 of light (SNP cells [1]; 8 μg/mL, 5 J/cm^2 and 15 J/cm^2): significantly lower | Cell viability compared with 0 J/cm^2 of light (SNP cells [1]; 40 μg/mL, 1, 5, and 15 J/cm^2): significantly lower | Cell death in the absence of laser irradiation (SNP cells [1]; <40 μg/mL G-Ce6, no laser irradiation): not observed | IC50 (SNP cells [1]; light dose 1 J/cm^2): 33.4 µg/mL (≈ 37.4 µM) | IC50 (SNP cells [1]; light dose 5 J/cm^2): 10.4 µg/mL (≈ 11.6 µM) | IC50 (SNP cells [1]; light dose 15 J/cm^2): 1.7 µg/mL (≈ 1.9 µM) | Morphological changes 4 h after PDT (SNP cells [2]; 0 J/cm^2 PDT group, Hoechst 33342): Signs of cell death were not visible | Annexin V-FITC / EthD-III staining 4 h after PDT (SNP cells [2]; 0 and 1 J/cm^2 PDT groups): a few cells were positively stained with EthD-III | Annexin V-FITC / EthD-III staining 4 h after PDT (SNP cells [2]; 5 and 15 J/cm^2 PDT groups): many cells were positively stained with Annexin V or EthD-III | Morphological changes 4 h after PDT (SNP cells [2]; 1 J/cm^2 PDT group): membrane blebbing | Morphological changes 4 h after PDT (SNP cells [2]; 5 J/cm^2 PDT group): shrinkage | Hoechst 33342 nuclear staining 4 h after PDT (SNP cells [2]; 5 and 15 J/cm^2 PDT groups): nuclear condensation | Morphological changes 4 h after PDT (SNP cells [2]; 15 J/cm^2 PDT group): cell membranes were not observed and a decrease in the number of SNP cells was evident | AUC ([3]; 5 mg/kg (n = 3)): 59700 ± 7870 ng·h/mL | Cmax ([3]; 5 mg/kg (n = 3)): 47000 ± 12200 ng/mL | clearance ([3]; 5 mg/kg (n = 3)): 1.41 mL/min/kg | half-life ([3]; 5 mg/kg (n = 3)): 2.84 ± 0.6 h | Vd ([3]; 5 mg/kg (n = 3)): 0.258 ± 0.0656 L/kg | AUC ([3]; 20 mg/kg (n = 1)): 235000 ng·h/mL | Cmax ([3]; 20 mg/kg (n = 1)): 82000 ng/mL | clearance ([3]; 20 mg/kg (n = 1)): 1.42 mL/min/kg | half-life ([3]; 20 mg/kg (n = 1)): 2.51 h | Vd ([3]; 20 mg/kg (n = 1)): 0.284 L/kg | AUC ([3]; both sexes, 2 mg/kg (n = 6)): 12000 ± 3180 ng·h/mL | Cmax ([3]; both sexes, 2 mg/kg (n = 6)): 15200 ± 4440 ng/mL | clearance ([3]; both sexes, 2 mg/kg (n = 6)): 2.93 mL/min/kg | half-life ([3]; both sexes, 2 mg/kg (n = 6)): 3.02 ± 0.58 h | Vd ([3]; both sexes, 2 mg/kg (n = 6)): 0.529 ± 0.189 L/kg | Cytotoxicity after 1 h incubation (SNP cells [4]): No cytotoxicity was observed
